Measured values: PubChem BioAssay AID602350 (Broad Institute, 2012)

Target: Protein disulfide-isomerase (Homo sapiens) (UniProt P07237)
Test: PDI inhibitors, insulin aggregation turbidity, dose response, biochemical, absorbance, cherry-picked samples (AID 602350);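 note: potency is for inhibitors that reduce insulin aggregation absorbance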
Settings: recombinant PDI insulin aggregation, absorbance 650 nm, 90 min

Sequence of Protein disulfide-isomerase (Homo sapiens) (P07237 whole entry, looked up): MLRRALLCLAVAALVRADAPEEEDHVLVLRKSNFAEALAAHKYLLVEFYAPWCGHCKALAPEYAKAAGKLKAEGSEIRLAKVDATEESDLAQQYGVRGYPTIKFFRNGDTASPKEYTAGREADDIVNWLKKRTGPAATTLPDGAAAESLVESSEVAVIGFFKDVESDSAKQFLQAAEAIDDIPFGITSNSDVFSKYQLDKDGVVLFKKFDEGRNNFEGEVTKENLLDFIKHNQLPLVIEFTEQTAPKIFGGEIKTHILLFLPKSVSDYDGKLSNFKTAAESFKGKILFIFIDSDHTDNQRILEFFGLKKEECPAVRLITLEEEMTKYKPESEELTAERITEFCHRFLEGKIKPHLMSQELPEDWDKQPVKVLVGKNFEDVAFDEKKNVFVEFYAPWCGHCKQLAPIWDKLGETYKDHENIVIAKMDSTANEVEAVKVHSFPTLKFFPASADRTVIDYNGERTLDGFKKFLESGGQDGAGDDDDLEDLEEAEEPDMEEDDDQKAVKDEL

AC50: 19.5 µM
Structure (SMILES): Cc1noc(C)c1S(=O)(=O)Nc1ccc2c(c1)CC(=O)N([C@@H](C)CO)C[C@@H](C)[C@H](CN(C)S(=O)(=O)c1ccc(F)cc1)O2
